Activity calls are given as the source filed them.
Experiments:
[1] = molecular target: T1, Calpain-2 catalytic subunit (Sus scrofa, UniProt P43367); test: pig calpain II inhibitor potency, dose response, biochemical, fluorogenic peptide substrate (AID 1420); type: functional
T1 sequence (P43367 whole entry): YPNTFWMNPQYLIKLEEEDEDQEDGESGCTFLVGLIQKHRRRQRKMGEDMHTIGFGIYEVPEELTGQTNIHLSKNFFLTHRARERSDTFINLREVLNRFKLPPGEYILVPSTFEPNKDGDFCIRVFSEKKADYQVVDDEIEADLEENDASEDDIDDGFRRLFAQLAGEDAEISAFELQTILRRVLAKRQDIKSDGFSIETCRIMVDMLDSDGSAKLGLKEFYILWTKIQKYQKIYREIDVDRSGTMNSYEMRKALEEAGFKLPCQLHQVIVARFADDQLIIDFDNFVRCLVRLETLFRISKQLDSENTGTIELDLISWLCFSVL

[2] = molecular target: T2, Caspase-3 (Homo sapiens, UniProt P42574); type: functional;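 also: Dose-response selectivity test against caspase-3 for candidate inhibitors of sentrin-specific proteases (SENPs)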
T2 sequence (P42574 whole entry): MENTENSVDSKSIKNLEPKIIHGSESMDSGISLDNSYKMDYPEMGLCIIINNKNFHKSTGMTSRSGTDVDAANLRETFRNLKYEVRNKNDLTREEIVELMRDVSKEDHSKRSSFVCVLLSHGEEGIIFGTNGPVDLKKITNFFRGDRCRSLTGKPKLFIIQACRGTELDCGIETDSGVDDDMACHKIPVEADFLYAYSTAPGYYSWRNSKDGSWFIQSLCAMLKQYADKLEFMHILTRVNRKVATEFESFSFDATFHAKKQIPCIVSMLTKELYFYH

[3] = molecular target: T3, Sentrin-specific protease 7 (Homo sapiens, UniProt Q9BQF6); type: functional;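 also: Luminescence-based dose-response confirmation of ultra-high-throughput screening hits, measuring inhibition of SENP7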
T3 sequence (Q9BQF6 whole entry): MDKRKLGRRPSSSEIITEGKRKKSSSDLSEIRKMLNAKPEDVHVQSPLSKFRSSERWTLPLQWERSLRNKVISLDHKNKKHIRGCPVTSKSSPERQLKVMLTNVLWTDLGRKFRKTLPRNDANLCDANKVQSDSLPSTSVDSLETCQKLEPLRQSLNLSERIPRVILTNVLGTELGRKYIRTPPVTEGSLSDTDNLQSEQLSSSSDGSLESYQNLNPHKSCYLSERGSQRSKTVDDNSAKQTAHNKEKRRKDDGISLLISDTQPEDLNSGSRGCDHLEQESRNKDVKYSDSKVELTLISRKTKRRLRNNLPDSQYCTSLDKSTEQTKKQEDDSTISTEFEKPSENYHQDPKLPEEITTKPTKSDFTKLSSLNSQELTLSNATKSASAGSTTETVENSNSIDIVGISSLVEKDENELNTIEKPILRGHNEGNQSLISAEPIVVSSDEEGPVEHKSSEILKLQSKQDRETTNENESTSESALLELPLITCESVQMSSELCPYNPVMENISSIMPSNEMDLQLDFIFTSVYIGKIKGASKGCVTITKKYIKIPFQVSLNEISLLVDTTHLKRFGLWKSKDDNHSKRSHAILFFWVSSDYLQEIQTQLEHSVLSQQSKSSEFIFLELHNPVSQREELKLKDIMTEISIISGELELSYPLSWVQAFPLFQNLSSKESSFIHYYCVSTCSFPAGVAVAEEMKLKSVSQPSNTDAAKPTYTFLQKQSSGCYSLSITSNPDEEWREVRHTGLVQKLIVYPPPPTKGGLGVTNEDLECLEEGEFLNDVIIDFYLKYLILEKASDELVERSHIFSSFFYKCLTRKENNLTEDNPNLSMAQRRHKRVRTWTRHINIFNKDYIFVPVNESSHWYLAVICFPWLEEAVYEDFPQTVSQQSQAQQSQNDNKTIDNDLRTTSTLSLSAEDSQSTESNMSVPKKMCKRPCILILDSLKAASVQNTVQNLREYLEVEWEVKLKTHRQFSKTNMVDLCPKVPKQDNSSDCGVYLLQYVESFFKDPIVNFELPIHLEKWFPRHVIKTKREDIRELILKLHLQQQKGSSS

[4] = molecular target: T4, Sentrin-specific protease 6 (Homo sapiens, UniProt Q9GZR1); type: functional;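 also: Luminescence-based dose-response confirmatory assay of SENP6 inhibition, following up an ultra-high-throughput screen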
T4 sequence (Q9GZR1 whole entry): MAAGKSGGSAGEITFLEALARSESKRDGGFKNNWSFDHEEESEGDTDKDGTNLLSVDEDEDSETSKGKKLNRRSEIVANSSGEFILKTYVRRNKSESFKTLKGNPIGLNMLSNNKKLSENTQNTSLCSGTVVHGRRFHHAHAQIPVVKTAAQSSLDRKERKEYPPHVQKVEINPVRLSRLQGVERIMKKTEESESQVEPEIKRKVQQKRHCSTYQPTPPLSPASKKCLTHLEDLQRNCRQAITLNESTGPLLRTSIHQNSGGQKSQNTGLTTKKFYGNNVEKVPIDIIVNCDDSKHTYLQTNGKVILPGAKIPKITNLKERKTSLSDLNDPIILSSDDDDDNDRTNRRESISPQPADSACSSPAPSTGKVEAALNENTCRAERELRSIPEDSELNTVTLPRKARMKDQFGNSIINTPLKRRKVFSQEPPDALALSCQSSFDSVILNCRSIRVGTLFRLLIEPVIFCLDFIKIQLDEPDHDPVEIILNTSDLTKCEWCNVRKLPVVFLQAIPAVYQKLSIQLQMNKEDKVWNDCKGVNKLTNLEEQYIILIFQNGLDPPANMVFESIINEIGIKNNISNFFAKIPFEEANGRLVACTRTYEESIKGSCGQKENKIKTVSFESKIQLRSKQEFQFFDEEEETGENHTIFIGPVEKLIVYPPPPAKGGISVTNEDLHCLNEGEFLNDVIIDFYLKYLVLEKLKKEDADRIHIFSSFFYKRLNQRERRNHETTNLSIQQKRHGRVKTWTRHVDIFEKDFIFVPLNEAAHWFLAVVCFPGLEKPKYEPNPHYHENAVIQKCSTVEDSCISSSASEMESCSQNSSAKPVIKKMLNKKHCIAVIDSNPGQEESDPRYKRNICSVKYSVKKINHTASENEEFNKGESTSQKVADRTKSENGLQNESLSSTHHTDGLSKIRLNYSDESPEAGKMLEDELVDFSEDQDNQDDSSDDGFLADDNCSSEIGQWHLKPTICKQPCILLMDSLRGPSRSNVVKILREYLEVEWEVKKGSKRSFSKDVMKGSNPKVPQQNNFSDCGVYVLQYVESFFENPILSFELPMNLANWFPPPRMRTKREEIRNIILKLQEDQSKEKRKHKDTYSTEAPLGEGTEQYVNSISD

[5] = molecular target: T5, Sentrin-specific protease 8 (Homo sapiens, UniProt Q96LD8); type: functional;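 also: luminescence read-out of SENP8 inhibition, dose-response confirmation following an ultra-high-throughput screen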
T5 sequence (Q96LD8 whole entry): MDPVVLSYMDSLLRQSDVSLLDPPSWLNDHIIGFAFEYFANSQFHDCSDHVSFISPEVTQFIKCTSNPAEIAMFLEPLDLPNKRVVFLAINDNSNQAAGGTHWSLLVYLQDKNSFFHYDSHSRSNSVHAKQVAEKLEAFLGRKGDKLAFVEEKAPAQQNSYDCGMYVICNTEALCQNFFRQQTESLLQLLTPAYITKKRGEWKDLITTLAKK

[6] = molecular target: Prothrombin (Homo sapiens, UniProt P00734); test: Thrombin 1536 HTS Dose Response Confirmation. [Related pubchem assays: 1046 (Thrombin 1536 HTS; hits were confirmed in this assay)]; type: functional
[7] = molecular target: Cytochrome P450 3A4 (Homo sapiens, UniProt P08684); conditions: Potency;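 also: confirmatory qHTS run detecting inhibitors and substrates of CYP3A4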
Cytochrome P450 3A4, sequence (P08684 whole entry): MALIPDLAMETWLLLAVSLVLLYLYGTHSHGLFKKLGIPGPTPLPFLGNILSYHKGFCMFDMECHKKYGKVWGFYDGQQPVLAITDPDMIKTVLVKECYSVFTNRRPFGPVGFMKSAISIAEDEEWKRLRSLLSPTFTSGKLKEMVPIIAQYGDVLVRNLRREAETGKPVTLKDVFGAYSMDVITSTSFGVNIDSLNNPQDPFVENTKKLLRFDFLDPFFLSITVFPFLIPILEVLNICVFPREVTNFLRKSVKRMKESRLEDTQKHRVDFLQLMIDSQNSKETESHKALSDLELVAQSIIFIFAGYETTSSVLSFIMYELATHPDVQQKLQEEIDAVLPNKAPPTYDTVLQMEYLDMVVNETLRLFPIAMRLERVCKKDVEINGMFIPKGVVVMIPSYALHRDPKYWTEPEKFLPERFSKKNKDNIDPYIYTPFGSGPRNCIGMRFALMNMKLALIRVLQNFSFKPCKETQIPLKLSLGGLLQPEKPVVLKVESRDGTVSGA

[8] = test system: HeLa; test: HeLa cell cytotoxicity, dose response, cytotoxicity control for MITF activator project, CellTiter-Glo luminescence, cherry-pick samples (AID 540259); type: functional, cell-based; conditions: Homo sapiens

SMILES	IC50 [1]	IC50 [6]	AC50 [7]	other results
O=C(Nc1ccc2c(c1)CCC2)c1cccc(S(=O)(=O)Nc2ccccc2Cl)c1	6.7 µM (not active)			IC50 [2]: 70.3 µM (active); IC50 [3]: 23.9 µM (active); IC50 [4]: 47.3 µM (active); IC50 [5]: 92.9 µM (active)
CCOC(=O)Cn1c(=O)oc2cc(S(=O)(=O)NCCc3ccc(C)cc3)ccc21		> 50 µM (not active)		
COCCNC(=O)C1(CC(C)C)C=CCN1C(=O)OC (centres undefined)			0.1 µM (inconclusive)	
CC1(C)CCCC2(C)C3C(O)CC2(C)C(O)C31 (centres undefined)			31.6 µM (inconclusive)	
CCOC(=O)C1=CC(OC(CC)CC)C(NC(C)=O)C(N)C1 (centres undefined)			25.1 µM (inconclusive)	
CCN(CC)C(=O)Cn1cc(C(=O)C(=O)NCCCn2ccnc2)c2ccccc21		> 50 µM (not active)		
COc1ccc(Cl)cc1N(CC(=O)NC(C)(C)C)S(=O)(=O)c1ccc(C)c([N+](=O)[O-])c1	12.7 µM (not active)			
Nc1nc(-c2ccco2)nn1C(=O)c1cccnc1		0.589 µM (active)		
CC(C)(C)c1ccc(-c2cc(C(=O)NNC(=O)Nc3ccccc3)c3ccccc3n2)cc1				AC50 [8]: 69.9 µM (active)
Cc1c(C(=O)N2c3ccccc3Sc3ccccc32)cccc1[N+](=O)[O-]	2.4 µM (not active)			
